Key:
SU-DHL6 = assay: Inhibition of tumor cell proliferation, CellTiter-Glo, SU-DHL6; type: cell-based; settings: compound concentration 50 μM, 72 hours
Outline: (§1)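 Cells seeded at 2000-10000 per well, treated immediately (suspension) or after adherence (adherent) and cultured at 37° C, 5% CO2. Viability read by CellTiter-Glo at 72 h as blank-corrected survival rate vs control. Scored at 50 μM compound: survival 60-<90% +, >30-60% ++, ≤30% +++.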

RPMI-8226 = assay: Inhibition of tumor cell proliferation, CellTiter-Glo, RPMI-8226; type: cell-based; settings: compound concentration 50 μM, 72 hours
Outline: as §1

A549 = assay: Inhibition of tumor cell proliferation, CellTiter-Glo, A549; type: cell-based; settings: compound concentration 50 μM, 72 hours
Outline: as §1

MDA-MB-453 = assay: Inhibition of tumor cell proliferation, CellTiter-Glo, MDA-MB-453; type: cell-based; settings: compound concentration 50 μM, 72 hours
Outline: as §1

K562 = assay: Inhibition of tumor cell proliferation, CellTiter-Glo, K562; type: cell-based; settings: compound concentration 50 μM, 72 hours
Outline: as §1

LC3B = LC3B (Homo sapiens (Human), UniProt Q9GZQ8); assay: Fluorescence polarization experiment targeting LC3B (GST-LC3B with FITC-labeled peptide); settings: GST-LC3B 180 nM, FITC-labeled peptide 18 nM, 25° C.
BxPC-3 = assay: Inhibition of tumor cell proliferation, CellTiter-Glo, BxPC-3; type: cell-based; settings: compound concentration 50 μM, 72 hours
Outline: as §1

SMILES | Inhibitory activity against proliferation (cell survival rate) SU-DHL6 (SU-DHL6) | Inhibitory activity against proliferation (cell survival rate) RPMI-8226 (RPMI-8226) | Inhibitory activity against proliferation (cell survival rate) A549 (A549) | Inhibitory activity against proliferation (cell survival rate) MDA-MB-453 (MDA-MB-453) | Inhibitory activity against proliferation (cell survival rate) K562 (K562) | IC50 (LC3B) [µM] | Inhibitory activity against proliferation (cell survival rate) BxPC-3 (BxPC-3)
O=C1CCC(N2Cc3c(NC=C4C(=O)CC(c5cccc(Cl)c5F)CC4=O)cccc3C2=O)C(=O)N1 (stereo not drawn) [Compound 146] | +++ (survival rate (%)≤30) | +++ (survival rate (%)≤30) | + (60≤survival rate (%)<90) | +++ (survival rate (%)≤30) | +++ (survival rate (%)≤30) | < 3 | + (60≤survival rate (%)<90)
Cc1ccc(C2CC(=O)C(=CNc3cccc4c3CN(C3CCC(=O)NC3=O)C4=O)C(=O)C2)c(Br)c1 (stereo not drawn) [Compound 20] | ++ (30<survival rate (%)≤60) | + (60≤survival rate (%)<90) | ++ (30<survival rate (%)≤60) | + (60≤survival rate (%)<90) | ++ (30<survival rate (%)≤60) | < 3 | + (60≤survival rate (%)<90)
CC(C)[C@H](NC(=O)CN1CCN(CCNC=C2C(=O)CC(c3ccccc3)CC2=O)CC1)C(=O)N[C@@H](CCCNC(N)=O)C(=O)Nc1ccc(COC(=O)Nc2cccc3c2CN(C2CCC(=O)NC2=O)C3=O)cc1 (stereo partly drawn) [Compound 90] | +++ (survival rate (%)≤30) | ++ (30<survival rate (%)≤60) | ++ (30<survival rate (%)≤60) | ++ (30<survival rate (%)≤60) | +++ (survival rate (%)≤30) | 15 to 100 | ++ (30<survival rate (%)≤60)
O=C1CCC(N2Cc3c(NC(=C4C(=O)CC(c5ccccc5)CC4=O)c4ccccc4)cccc3C2=O)C(=O)N1 (stereo not drawn) [Compound 75] | +++ (survival rate (%)≤30) | +++ (survival rate (%)≤30) | +++ (survival rate (%)≤30) | +++ (survival rate (%)≤30) | +++ (survival rate (%)≤30) | 100 to 1000 | + (60≤survival rate (%)<90)
CC(C)[C@H](NC=C1C(=O)CC(c2ccccc2)CC1=O)C(=O)N[C@@H](CCCNC(N)=O)C(=O)Nc1cccc2c1CN(C1CCC(=O)NC1=O)C2=O (stereo partly drawn) [Compound 59] | +++ (survival rate (%)≤30) | +++ (survival rate (%)≤30) | +++ (survival rate (%)≤30) | + (60≤survival rate (%)<90) | +++ (survival rate (%)≤30) | 100 to 1000 | ++ (30<survival rate (%)≤60)
O=C1CCC(N2Cc3c(NC(=O)CCCNC=C4C(=O)CC(c5ccccc5)CC4=O)cccc3C2=O)C(=O)N1 (stereo not drawn) [Compound 47] | +++ (survival rate (%)≤30) | + (60≤survival rate (%)<90) | + (60≤survival rate (%)<90) | +++ (survival rate (%)≤30) | + (60≤survival rate (%)<90) | 100 to 1000 | ++ (30<survival rate (%)≤60)

From patent US11021457B2, “Class of isoindolone-imide ring-1,3-dione-2-ene compounds, composition and use thereof” (WIGEN BIOMEDICINE TECHNOLOGY (SHANGHAI) CO., LTD., priority 2017, dated 2021)
